Tested on: 138582-337-R-J1-PDC complex spheroid viability
Experiment: Anticancer human tumor 138582-337-R-J1-PDC patient-derived Merkel cell tumor cell line growth inhibition
Details: for IC50: curve of first compound; for viability, T/C: stronger effect = lower value
Procedure, shortened: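 Drug combinations with the LSD1 inhibitor iadademstat tested on tumor cells co-cultured as spheroids with endothelial cells and mesenchymal stem cells. Concentrations descended in half-log increments from clinical Cmax or 10 microM.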

[1] = second compound 0.1 µM, first compound 0.00316 µM
[2] = second compound 0.1 µM, first compound 0.01 µM
[3] = second compound 0.1 µM, first compound 0.0316 µM
[4] = second compound 0.1 µM, first compound 0.1 µM
[5] = second compound 0.316 µM, first compound 0.00316 µM
[6] = second compound 0.316 µM, first compound 0.01 µM
[7] = second compound 0.316 µM, first compound 0.0316 µM
[8] = second compound 0.316 µM, first compound 0.1 µM
[9] = second compound 1 µM, first compound 0.00316 µM
[10] = second compound 1 µM, first compound 0.01 µM
[11] = second compound 1 µM, first compound 0.0316 µM
[12] = second compound 1 µM, first compound 0.1 µM
[13] = second compound 3.16 µM, first compound 0.00316 µM
[14] = second compound 3.16 µM, first compound 0.01 µM
[15] = second compound 3.16 µM, first compound 0.0316 µM
[16] = second compound 3.16 µM, first compound 0.1 µM
[17] = second compound 10 µM, first compound 0.00316 µM
[18] = second compound 10 µM, first compound 0.01 µM
[19] = second compound 10 µM, first compound 0.0316 µM
[20] = second compound 10 µM, first compound 0.1 µM
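Further: spheroids exposed to agents for 7 days.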
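Wherever viability, T/C is given: 100% = DMSO vehicle control viability.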

Compound `COc1cc(Nc2ncc3c(n2)-c2ccc(Cl)cc2C(c2c(F)cccc2OC)=NC3)ccc1C(=O)O` + NC1CCC(NC2CC2c2ccccc2)CC1 has an IC50 (second compound 0.1 µM) of over 1000 nM, an IC50 (second compound 0.316 µM) of over 1000 nM and an IC50 (second compound 1 µM) of over 1000 nM. For the same compound, the IC50 (second compound 3.16 µM) was over 1000 nM, the IC50 (second compound 10 µM) was over 1000 nM and the viability, T/C [1] was 89.6%. It also gave a viability, T/C [2] of 97.8%, a viability, T/C [3] of 85.2% and a viability, T/C [4] of 83.3%. The viability, T/C (second compound 0.1 µM, first compound 0.316 µM) was 93%, the viability, T/C (second compound 0.1 µM, first compound 1 µM) was 88.3% and the viability, T/C [5] was 99.2%. The viability, T/C [6] was 91.4%, the viability, T/C [7] was 91.4% and the viability, T/C [8] was 86.8%. For the same compound, the viability, T/C (second compound 0.316 µM, first compound 0.316 µM) was 98.2%, the viability, T/C (second compound 0.316 µM, first compound 1 µM) was 90.1% and the viability, T/C [9] was 89.6%. For the same compound, the viability, T/C [10] was 93.3%, the viability, T/C [11] was 88.1% and the viability, T/C [12] was 98%. For the same compound, the viability, T/C (second compound 1 µM, first compound 0.316 µM) was 96.3%, the viability, T/C (second compound 1 µM, first compound 1 µM) was 84.1% and the viability, T/C [13] was 98.2%. For the same compound, the viability, T/C [14] was 94.9%, the viability, T/C [15] was 87.1% and the viability, T/C [16] was 78.9%. For the same compound, the viability, T/C (second compound 3.16 µM, first compound 0.316 µM) was 74.7%, the viability, T/C (second compound 3.16 µM, first compound 1 µM) was 83% and the viability, T/C [17] was 99.9%. For the same compound, the viability, T/C [18] was 98.6%, the viability, T/C [19] was 90.5% and the viability, T/C [20] was 76.9%. The viability, T/C (second compound 10 µM, first compound 0.316 µM) was 87.2% and the viability, T/C (second compound 10 µM, first compound 1 µM) was 74.2%.
Work on `Cn1ncnc1C1c2n[nH]c(=O)c3cc(F)cc(c23)NC1c1ccc(F)cc1` (stereo not given) + NC1CCC(NC2CC2c2ccccc2)CC1 yielded an IC50 (second compound 0.1 µM) of over 100 nM, an IC50 (second compound 0.316 µM) of over 100 nM and an IC50 (second compound 1 µM) of over 100 nM. For the same compound, the IC50 (second compound 3.16 µM) was over 100 nM, the IC50 (second compound 10 µM) was over 100 nM and the viability, T/C (second compound 0.1 µM, first compound 0.000316 µM) was 82.5%. For the same compound, the viability, T/C (second compound 0.1 µM, first compound 0.001 µM) was 87.7%, the viability, T/C [1] was 89% and the viability, T/C [2] was 91.2%. For the same compound, the viability, T/C [3] was 87.9%, the viability, T/C [4] was 98.5% and the viability, T/C (second compound 0.316 µM, first compound 0.000316 µM) was 84.7%. For the same compound, the viability, T/C (second compound 0.316 µM, first compound 0.001 µM) was 90.9%, the viability, T/C [5] was 95.7% and the viability, T/C [6] was 79.1%. The viability, T/C [7] was 93.3%, the viability, T/C [8] was 105% and the viability, T/C (second compound 1 µM, first compound 0.000316 µM) was 97.5%. It also gave a viability, T/C (second compound 1 µM, first compound 0.001 µM) of 88.7%, a viability, T/C [9] of 94.3% and a viability, T/C [10] of 83.8%. The viability, T/C [11] was 90.7%, the viability, T/C [12] was 97.9% and the viability, T/C (second compound 3.16 µM, first compound 0.000316 µM) was 101%. The viability, T/C (second compound 3.16 µM, first compound 0.001 µM) was 89.4%, the viability, T/C [13] was 83.1% and the viability, T/C [14] was 81.2%. The viability, T/C [15] was 82.3%, the viability, T/C [16] was 102% and the viability, T/C (second compound 10 µM, first compound 0.000316 µM) was 84.7%. It also gave a viability, T/C (second compound 10 µM, first compound 0.001 µM) of 82.8%, a viability, T/C [17] of 83.2% and a viability, T/C [18] of 77%. The viability, T/C [19] was 73.7% and the viability, T/C [20] was 81.5%.
`NS(=O)(=O)OCC1CC(n2ccc3c(NC4CCc5ccccc54)ncnc32)CC1O` (stereo not given) + NC1CCC(NC2CC2c2ccccc2)CC1 showed an IC50 (second compound 0.1 µM) of 621 nM, an IC50 (second compound 0.316 µM) of 658 nM and an IC50 (second compound 1 µM) of 629 nM. It also gave an IC50 (second compound 3.16 µM) of 471 nM, an IC50 (second compound 10 µM) of 819 nM and a viability, T/C (second compound 0.1 µM, first compound 0.00949 µM) of 98.5%. For the same compound, the viability, T/C (second compound 0.1 µM, first compound 0.03 µM) was 114%, the viability, T/C (second compound 0.1 µM, first compound 0.0949 µM) was 92.1% and the viability, T/C (second compound 0.1 µM, first compound 0.3 µM) was 67.2%. It also gave a viability, T/C (second compound 0.1 µM, first compound 0.949 µM) of 40.5%, a viability, T/C (second compound 0.1 µM, first compound 3 µM) of 33.1% and a viability, T/C (second compound 0.316 µM, first compound 0.00949 µM) of 112%. For the same compound, the viability, T/C (second compound 0.316 µM, first compound 0.03 µM) was 96.2%, the viability, T/C (second compound 0.316 µM, first compound 0.0949 µM) was 84.2% and the viability, T/C (second compound 0.316 µM, first compound 0.3 µM) was 67.3%. For the same compound, the viability, T/C (second compound 0.316 µM, first compound 0.949 µM) was 37.4%, the viability, T/C (second compound 0.316 µM, first compound 3 µM) was 37% and the viability, T/C (second compound 1 µM, first compound 0.00949 µM) was 106%. For the same compound, the viability, T/C (second compound 1 µM, first compound 0.03 µM) was 107%, the viability, T/C (second compound 1 µM, first compound 0.0949 µM) was 85.5% and the viability, T/C (second compound 1 µM, first compound 0.3 µM) was 72.4%. For the same compound, the viability, T/C (second compound 1 µM, first compound 0.949 µM) was 35.3%, the viability, T/C (second compound 1 µM, first compound 3 µM) was 32.2% and the viability, T/C (second compound 3.16 µM, first compound 0.00949 µM) was 101%. It also gave a viability, T/C (second compound 3.16 µM, first compound 0.03 µM) of 119%, a viability, T/C (second compound 3.16 µM, first compound 0.0949 µM) of 90.1% and a viability, T/C (second compound 3.16 µM, first compound 0.3 µM) of 64.3%. It also gave a viability, T/C (second compound 3.16 µM, first compound 0.949 µM) of 29.8%, a viability, T/C (second compound 3.16 µM, first compound 3 µM) of 22.2% and a viability, T/C (second compound 10 µM, first compound 0.00949 µM) of 107%. It also gave a viability, T/C (second compound 10 µM, first compound 0.03 µM) of 107%, a viability, T/C (second compound 10 µM, first compound 0.0949 µM) of 92.8% and a viability, T/C (second compound 10 µM, first compound 0.3 µM) of 79.5%. For the same compound, the viability, T/C (second compound 10 µM, first compound 0.949 µM) was 44.4% and the viability, T/C (second compound 10 µM, first compound 3 µM) was 26%.
